From patent US20220193386A1, “MICRONEEDLE ARRAYS FOR CANCER THERAPY APPLICATIONS” (University of Pittsburgh - Of the Commonwealth System of …, priority 2014, published 2022)

Key:
OVA = assay: OVA-specific CTL activity in vivo after CMC-microneedle array immunization; design: species or system mice; conditions: pyramidal CMC-microneedle arrays on mouse ears, 5 minutes, boosted one week later
Description: To directly evaluate the immunogenicity of CMC microneedle array incorporated antigens, the well characterized model antigen ovalbumin was used. Pyramidal arrays were fabricated incorporating either soluble ovalbumin (sOVA), particulate ovalbumin (pOVA), or arrays containing both pOVA along with CpGs. The adjuvant effects of CpGs are well characterized in animal models, and their adjuvanticity in humans is currently being evaluated in clinical trials.
Immunization was achieved by applying antigen containing CMC-microneedle arrays to the ears of anesthetized mice using a spring-loaded applicator as described above, followed by removal of the arrays 5 minutes after application. These pyramidal microneedle arrays contained about 5 wt % OVA in CMC and about 0.075 wt % (20 μM) CpG. As a positive control, gene gun based genetic immunization strategy using plasmid DNA encoding OVA was used.
Mice were immunized, boosted one week later, and then assayed for OVA-specific CTL activity in vivo. […] It is well established that similar responses require substantially higher doses of antigen when delivered by traditional needle injection.
To evaluate the stability of fabricated arrays, batches of arrays were fabricated, stored, and then used over an extended period of time. […]

human skin = assay: Apoptosis and necrosis in human skin at the doxorubicin MNA dose; conditions: MNA dose of doxorubicin chosen for the B16 study
B16 melanoma = B16 melanoma model: MNA treatment of established cutaneous tumors, tumor growth and survival; conditions: MNAs once weekly for three weeks, established B16 skin tumors; for tumor growth: vs untreated; for survival: untreated 100% mortality, through day 70
Protocol: The B16 melanoma model was used as a model tumor to test these novel approaches.
B16 skin tumors were established in normal mice by injection. Visible established cutaneous tumors were treated once weekly for three weeks with MNAs containing either doxorubicin alone, Poly(I:C) alone, or doxorubicin and Poly(I:C) incorporated into the same MNA. […] Tumor growth and survival were measured regularly for the duration of the study.

epidermal cells = conditions: pyramidal CMC-microneedle arrays, 5 mg/g of CMC, arrays removed after 5 minutes, 72 hours of exposure
Protocol: Cytoxan® was integrated at a concentration of 5 mg/g of CMC, enabling delivery of approximately about 140 μg per array. This is a therapeutically relevant concentration based on the area of skin targeted, yet well below levels associated with systemic toxicities. Living human skin organ cultures were used to assess the cytotoxicity of Cytoxan®. Cytoxan® was delivered by application of arrays to skin explants as we previously described. Arrays and residual material were removed 5 minutes after application, and after 72 hours of exposure, culture living skin explants were cryo-sectioned and fixed. Apoptosis was evaluated using green fluorescent TUNEL assay (In Situ Cell Death Detection Kit, TMR Green, Roche, cat #:11-684-795-910).

Row | Compound | OVA-specific CTL activity in vivo (OVA) | tumor growth (B16 melanoma) | survival (B16 melanoma) | further results
1 | soluble OVA: soluble ovalbumin model antigen incorporated in pyramidal CMC microneedle arrays | Significant OVA-specific CTL activity |  |  | 
2 | COc1cccc2c1C(=O)c1c(O)c3c(c(O)c1C2=O)C[C@@](O)(C(=O)CO)C[C@@H]3O[C@H]1C[C@H](N)[C@H](O)[C@H](C)O1 [doxorubicin] |  | slowed tumor growth | 30% | apoptosis / necrosis in human skin (human skin): induces apoptosis in human skin without causing necrosis
3 | O=P1(N(CCCl)CCCl)NCCCO1 (centres unmarked) [Cytoxan®, cyclophosphamide] |  |  |  | apoptosis of epidermal cells (TUNEL) (epidermal cells): extensive apoptosis of epidermal cells
4 | particulate OVA: particulate ovalbumin model antigen incorporated in pyramidal CMC microneedle arrays | Significant OVA-specific CTL activity |  |  | 
5 | Poly(I:C) |  | slowed tumor growth | 50% | 
